≈ marks a conversion by molar mass, not a printed value.
Tests used:
[1] = system: human cervical carcinoma cells (HeLa); experiment: Cell proliferation inhibition
[2] = DPPH radical scavenging test; conditions: mean ± SEM
[3] = system: vesicular stomatitis virus; experiment: microbe, parasite or virus in culture; format: cell-based; conditions: HeLa, read-out: Antiviral EC50
[4] = system: Trichophyton tonsurans; experiment: Antidermatophyte plaque growth inhibition; format: cell-based; conditions: for inhibition at 100 µg/mL: T. tonsurans, '+' has no key, read-out: Percent growth inhibition
[5] = system: herpes simplex virus-1 (KOS); experiment: Antiviral activity in HEL cell cultures (CPE, MTS); format: cell-based; conditions: Human alphaherpesvirus 1, HEL cells
[6] = system: herpes simplex virus-2 (G); experiment: Antiviral activity in HEL cell cultures (CPE, MTS); format: cell-based; conditions: Human alphaherpesvirus 2; Herpes simplex virus-2, HEL cells
[7] = system: Coxsackie virus B4; experiment: Antiviral activity in HeLa cell cultures (CPE, MTS); format: cell-based; conditions: Enterovirus B; Coxsackie virus B4, HeLa cells
[8] = UV filtering parameters of compounds in solution (MeOH, 290-400 nm)
[9] = system: Candida albicans (ATCC 10231); experiment: Anti-Candida albicans broth microdilution MIC
[10] = system: Respiratory syncytial virus; experiment: microbe, parasite or virus in culture; format: cell-based; conditions: human respiratory syncytial virus, HeLa cells, read-out: Antiviral EC50
[11] = system: Epidermophyton floccosum; experiment: Antidermatophyte plaque growth inhibition; format: cell-based; conditions: for inhibition at 100 µg/mL: E. floccosum, '+' has no key, read-out: Percent growth inhibition
[12] = system: human pancreatic carcinoma cells (Mia Paca-2); experiment: Cell proliferation inhibition
[13] = system: Microsporum gypseum; experiment: Antidermatophyte plaque growth inhibition; format: cell-based; conditions: Nannizzia gypsea; for inhibition at 100 µg/mL: M. gypseum, '+' has no key, read-out: Percent growth inhibition
[14] = system: vaccinia virus; experiment: microbe, parasite or virus in culture; format: cell-based; conditions: Orthopoxvirus vaccinia, HEL, read-out: Antiviral EC50
[15] = Ferric reducing antioxidant power (FRAP) test; conditions: mean ± SEM
[16] = system: Adeno virus-2; experiment: Antiviral activity in HEL cell cultures (CPE, MTS); format: cell-based; conditions: Adeno virus-2, HEL cells
[17] = system: HEK293T (Normal Kidney Epithelial Cells); experiment: Cell proliferation inhibition, non-cancer control cells; conditions: Homo sapiens, HEK-293T
[18] = system: human T-lymphocyte cells (CEM); experiment: Cell proliferation inhibition
[19] = system: Human Coronavirus (229E); experiment: microbe, parasite or virus in culture; format: cell-based; conditions: HEL, read-out: Antiviral EC50
[20] = system: human embryonic lung (HEL) cell cultures
[21] = system: herpes simplex virus-1 TK-KOS ACVr; experiment: microbe, parasite or virus in culture; format: cell-based; conditions: Human alphaherpesvirus 1, HEL, read-out: Antiviral EC50
[22] = system: HeLa cell cultures; conditions: human
[23] = system: Trichophyton mentagrophytes; experiment: Antidermatophyte plaque growth inhibition; format: cell-based; conditions: for inhibition at 100 µg/mL: T. mentagrophytes, '+' has no key, read-out: Percent growth inhibition
[24] = system: Microsporum canis; experiment: Antidermatophyte plaque growth inhibition; format: cell-based; conditions: for inhibition at 100 µg/mL: M. canis, '+' has no key, read-out: Percent growth inhibition
[25] = system: human melanoma cells (SK-Mel 5); experiment: Cell proliferation inhibition
[26] = Candida albicans, ATCC10231, 24 h

## O=C(O)c1ccc2nc(-c3ccco3)[nH]c2c1 [Compound 14, 2-(furan-2-yl)-1H-benzimidazole-5-carboxylic Acid]
[1]
  IC50: > 100 µM
[2]
  DPPH IC50: 1416.38 ± 21.40 µg/mL
[3]
  EC50: > 100 µM
[4]
  inhibition at 100 µg/mL: < 0%
[5]
  EC50: > 100 µM
[6]
  EC50: > 100 µM
[7]
  EC50: > 100 µM
[8]
  SPF: 16.66±1.21
  UVA/UVB: 0.5
  UVAPF: 1.20±0.10
  λc (critical wavelength): 332 nm
[9]; [26]
  MIC: 16 µg/mL (≈ 70.1 µM)
[10]
  EC50: > 100 µM
[11]
  inhibition at 100 µg/mL: 6.45 ± 1.47%
[12]
  IC50: > 100 µM
[13]
  inhibition at 100 µg/mL: < 0%
[14]
  EC50: > 100 µM
[15]
  FRAP: 26.67 ± 2.89 µmolTE/g
[16]
  EC50: > 100 µM
[17]
  IC50: > 100 µM
[18]
  IC50: 75 ± 35 µM
[19]
  EC50: > 100 µM
[20]
  Cytotoxic concentration: > 100 µM
[21]
  EC50: > 100 µM
[22]
  Cytotoxic concentration: > 100 µM
[23]
  inhibition at 100 µg/mL: < 0%
other
  melting point: > 250 °C
[24]
  inhibition at 100 µg/mL: 18.7 ± 0.59%
[25]
  IC50: > 100 µM

## O=C(O)c1ccc2[nH]c(-c3cccs3)nc2c1 [Compound 15, 2-(thiophen-2-yl)-1H-benzimidazole-5-carboxylic Acid]
[1]
  IC50: > 100 µM
[2]; tested at 1 mg/mL
  DPPH (% Inhibition): 30.23 ± 1.45%
[3]
  EC50: > 100 µM
[4]
  inhibition at 100 µg/mL: 4.48 ± 0.9%
[5]
  EC50: > 100 µM
[6]
  EC50: > 100 µM
[7]
  EC50: > 100 µM
[8]
  SPF: 6.40±0.12
  UVA/UVB: 0.43
  UVAPF: 1.42±0.11
  λc (critical wavelength): 342 nm
[9]; [26]
  MIC: 16 µg/mL (≈ 65.5 µM)
[10]
  EC50: > 100 µM
[11]
  inhibition at 100 µg/mL: 6.45 ± 2.98%
[12]
  IC50: 80 ± 12 µM
[13]
  inhibition at 100 µg/mL: 2.14 ± 0.59%
[14]
  EC50: > 100 µM
[15]
  FRAP: 181.84 ± 2.66 µmolTE/g
[16]
  EC50: > 100 µM
[17]
  IC50: > 100 µM
[18]
  IC50: 50 ± 10 µM
[19]
  EC50: > 100 µM
[20]
  Cytotoxic concentration: > 100 µM
[21]
  EC50: > 100 µM
[22]
  Cytotoxic concentration: > 100 µM
[23]
  inhibition at 100 µg/mL: < 0%
other
  melting point: > 250 °C
[24]
  inhibition at 100 µg/mL: 20.3 ± 0.54%
[25]
  IC50: > 100 µM

## OC(Cn1cncn1)(Cn1cncn1)c1ccc(F)cc1F [Fluconazole, reference compound]
[4]; T. tonsurans growth, read-out: IC50
  IC50: 19.4 ± 0.87 µg/mL (≈ 63.4 µM)
[9]; 48 h, tested 0.25-128 µg/mL, '-' = no activity
  MIC: Neither synthesized compounds nor fluconazole showed activity
[9]; [26]
  MIC: 0.5 µg/mL (≈ 1.63 µM)
[11]; E. floccosum growth, read-out: IC50
  IC50: 0.08 ± 0.005 µg/mL (≈ 0.261 µM)
[13]; M. gypseum growth, read-out: IC50
  IC50: 18.5 ± 1.23 µg/mL (≈ 60.4 µM)
[23]; T. mentagrophytes growth, read-out: IC50
  IC50: 3.53 ± 0.26 µg/mL (≈ 11.5 µM)
[24]; M. canis growth, read-out: IC50
  IC50: 29.6 ± 1.84 µg/mL (≈ 96.6 µM)

— PMC7570844, “Skin Damages—Structure Activity Relationship of Benzimidazole Derivatives Bearing a 5-Membered Ring System” (Molecules, 2020)
